Test: Human HepG2 cell viability assay in 384 well format
Assay type: toxicity, cell-based
Parameters: dose 125 nL, time 70.5 hour; concentration not given beside the values
Details: HepG2 cells, read-out: Inhibition

Compound | cytotoxicity at 70.5 h
O=C(NC1CCN(c2ncccn2)CC1)c1sccc1C1CC1 | -5.49%
CN(Cc1cccc(C(N)=O)c1)c1ncc(C(N)=O)cc1Cl | -9.7%
CCOc1cncc(N2CCN(c3ccccc3F)CC2)n1 | 6.24%
COc1cc2c(cc1CNC(=O)Cc1cc(C)[nH]n1)OC(C)C2 (configuration not stated) | 3.19%
Cc1cc(NCc2csc(-c3ccsc3)n2)no1 | 0.878%
CCc1nc2c(s1)C(N(C)C(=O)c1csnn1)CCC2 (configuration not stated) | -5.63%
CCCn1cc(NC(=O)c2ccc(S(C)(=O)=O)cc2)ccc1=O | -1.34%
CCc1nc(C(=O)N(C)CC(=O)N(C)C)nn1-c1ccccc1Cl | 27.7%
CC(C)c1noc(CCCC(=O)Nc2cccc(F)c2)n1 | 15.5%
Cc1nnc(NC(=O)NCc2ccc(N3CCNC(=O)C3)cc2)s1 | -3.76%
CC(O)CNCc1c[nH]nc1-c1cc2ccccc2o1 (configuration not stated) | 17.5%
CC(C)(C)OC(=O)NCCNC(=O)c1ccc2cc[nH]c2c1 | 0.498%
CC(=O)c1cccc(NC(=O)NCCCc2nc(C(C)C)no2)c1 | -1.88%
Cc1nc(N2CCC(CC(=O)N3CCCC3)CC2)c2cnn(C)c2n1 | -3.28%
CC1CCC(NC(=O)CNC2(c3cccc(Br)c3)CCOCC2)CC1 (configuration not stated) | 9.26%
Cc1nn(C)c(N2CCCN(C)CC2)c1CNC(=O)C(C)(C)C | -0.257%
CCOC(=O)c1cnn(C2CCN(C(=O)CCC(C)C)CC2)c1N | 0.0774%
CN(C(=O)COc1ccc(-c2noc(C3CCCO3)n2)cc1)C1CC1 (configuration not stated) | 0.982%
CC(Nc1cccc2c1OCCO2)C(=O)Nc1cccc(C#N)c1 (configuration not stated) | 3.49%
CC(C)(C)S(=O)(=O)CCNC(=O)c1ccc2cc[nH]c2c1 | -0.00861%
CCn1nc(C)cc1C(=O)NCc1cc(N(C)C)nc2ccccc12 | 9.21%
COC(=O)N1CCC(Nc2ccc(C#N)c(Cl)c2)C1 (configuration not stated) | 1.68%
CCOCCC1(CNC(=O)c2ccc(C)nc2)CCCC1 | 0.601%
CCc1nc(C(=O)N(CC)CC(=O)Nc2cc(Cl)ccc2C)c[nH]1 | -4.72%

Compound | cytotoxicity at 70.5 h
Cn1cc(CC2CC(=O)N(Cc3ccc(Cl)cc3)C2=O)cn1 (configuration not stated) | 24.4%
CCOCCC1(CNC(=O)c2ccncc2Cl)CCC1 | -2.65%
COc1cccc(NC(=O)CCCc2nc(C(C)C)no2)c1 | 5.69%
Cc1nn(C)c(Cl)c1C1CCCN1CC(=O)N1CCCCC1 (configuration not stated) | 26.9%
CCCn1cc(NC2CCSCC2)cn1 | 2.92%
COc1ccc(CNCC2CN(C3CC3)CCO2)cc1C (configuration not stated) | -4.72%
Cc1c(C(=O)NC2=NCCS2)cnn1-c1ccc(Cl)cc1 | -3.08%
O=C(Nc1nncs1)N1CCC(CCc2ccc(O)cc2)CC1 | -14.7%
CN(CC(O)COc1ccc(C(F)(F)F)cc1)C(=O)Nc1nncs1 (configuration not stated) | 19.7%
O=C(Nc1nncs1)N1CCC(c2ccc(O)cc2)CC1 | -4.31%
CC(=O)Nc1nc(CS(=O)(=O)Cc2ccccc2)cs1 | 20.1%
NC(=O)C1CCN(CCc2ccc(NCc3cccnc3)cc2)CC1 | 4.26%
CN1CCN(C(=O)C2CCCN2c2ncnc3ccsc23)CC1 (configuration not stated) | -11.8%
CCC(C#N)NC(=O)COC1CCCCC1 (configuration not stated) | -13.3%
CN1CC(NC(=O)CCCc2cc(Cl)sc2Cl)CCC1=O (configuration not stated) | -6.53%
O=C(CCNS(=O)(=O)c1cccnc1)N1CCOC(c2ccccc2)C1 (configuration not stated) | -13.3%
CCN(C(c1cccnc1)c1ccc2c(c1)CCC2)S(C)(=O)=O (configuration not stated) | 3.11%
CC/C=C(/C)C(=O)N1CSCC1C(=O)N(C)CCc1ccncc1 (configuration not stated) | -4.98%
CC(NCCN1CCN(C(=O)C2CCCC2)CC1)c1nccs1 (configuration not stated) | 7.3%
Cc1cccc(-c2noc(CN3CCc4c(ncn4C4CC4)C3)n2)c1 | -13.2%
NC(c1ccc(F)cc1)c1cccs1 (configuration not stated) | 6.42%
CCCN(C)C(=O)c1cc(Br)cc(S(=O)(=O)N2CCOCC2)c1F | 6.3%
CCOC(=O)c1cnn(C2CCN(C(=O)CC(C)(C)C)CC2)c1N | 4.77%

Source: ChEMBL document CHEMBL3507680, “University of Dundee, Gates Library screen for HepG2 cell viability”
